Laboratory results published in patent publication US8134015B2, “Compound inhibiting in vivo phosphorous transport and medicine containing the same” (Kyowa Hakko Kirin Co., Ltd., priority 2003, dated 2012).

Each molecule was assayed against T1, rat NaPi-2b (Rattus norvegicus, UniProt Q9JJ09) (assay: Sodium-dependent phosphate uptake of Xenopus oocytes which expressed NaPi-2b (32P)). Settings: Xenopus oocytes expressing rat NaPi-2b, 32P radioactive phosphorus; read-out: IC50 (phosphate uptake inhibitory activity).
T1 construct: expressed in transfected cells; host or cells: Xenopus oocytes injected with cRNA
T1 sequence (Q9JJ09 1-695): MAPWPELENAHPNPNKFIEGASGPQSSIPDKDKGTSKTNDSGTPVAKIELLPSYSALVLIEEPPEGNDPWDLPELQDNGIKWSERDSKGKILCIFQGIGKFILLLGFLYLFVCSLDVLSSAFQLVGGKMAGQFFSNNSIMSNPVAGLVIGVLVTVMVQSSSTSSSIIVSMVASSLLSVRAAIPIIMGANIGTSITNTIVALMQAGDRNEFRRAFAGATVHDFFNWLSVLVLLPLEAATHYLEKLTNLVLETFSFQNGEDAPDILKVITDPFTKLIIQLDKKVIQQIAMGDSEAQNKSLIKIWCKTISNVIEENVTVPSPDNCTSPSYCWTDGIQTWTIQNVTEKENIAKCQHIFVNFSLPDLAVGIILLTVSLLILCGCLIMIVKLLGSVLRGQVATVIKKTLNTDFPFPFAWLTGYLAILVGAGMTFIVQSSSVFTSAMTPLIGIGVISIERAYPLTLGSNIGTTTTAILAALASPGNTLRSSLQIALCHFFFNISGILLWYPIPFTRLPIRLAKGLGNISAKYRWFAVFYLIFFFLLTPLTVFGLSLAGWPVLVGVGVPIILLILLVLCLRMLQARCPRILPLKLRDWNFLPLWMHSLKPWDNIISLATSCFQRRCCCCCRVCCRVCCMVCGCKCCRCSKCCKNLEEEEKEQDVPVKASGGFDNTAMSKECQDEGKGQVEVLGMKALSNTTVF
Assay type: cell-based
How it was run: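 Inhibition at 300 μM and 100 μM was read off one inhibition curve of 32P phosphate uptake. Uptake was measured in Xenopus oocytes cultured 2 days after injection of cRNA for cloned rat NaPi-2b.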

Compound | IC50 [µM]
CCN(CC)CC(O)COc1ccc(NC(=O)c2cccc(CN(CC(C)O)CC(C)O)c2)c(C(=O)N/N=C/c2ccc(Cl)c(C(F)(F)F)c2)c1 (centres unmarked) [Compound 952, 3-{[Bis-(2-hydroxy-propyl)-amino]-methyl}-N-[2-(4-chloro-3-trifluoromethyl-benzylidene-hydrazinocarbonyl)-4-(3-diethylamino-2-hydroxy-propoxy)-phenyl]-benzamide] | 19.2
CC(O)CN(Cc1cccc(C(=O)Nc2ccc(OCC(O)CN3CCOCC3)cc2C(=O)N/N=C/c2ccc(Cl)c(C(F)(F)F)c2)c1)CC(C)O (centres unmarked) [Compound 954, 3-{[Bis-(2-hydroxy-propyl)-amino]-methyl}-N-[2-(4-chloro-3-trifluoromethyl-benzylidene-hydrazinocarbonyl)-4-(2-hydroxy-3-morpholin-4-yl-propoxy)-phenyl]-benzamide] | 60.5
CCN(CC)Cc1cccc(C(=O)Nc2sc(CN3CCCCC3)c(C)c2C(=O)N/N=C/c2ccc(Cl)c(C(F)(F)F)c2)c1 [Compound 956, N-[3-(4-Chloro-3-trifluoromethyl-benzylidene-hydrazinocarbonyl)-4-methyl-5-piperidin-1-ylmethyl-thiophen-2-yl]-3-diethylaminomethyl-benzamide] | 29.8
COc1ccc(/C=N/NC(=O)c2cc(N3CCCCC3)ccc2NC(=O)c2cccc(CN(CC(C)O)CC(C)O)c2)cc1 (centres unmarked) [Compound 958, 3-{[Bis-(2-hydroxy-propyl)-amino]-methyl}-N-[2-(4-methoxy-benzylidene-hydrazinocarbonyl)-4-piperidin-1-yl-phenyl]-benzamide] | < 1
CC(O)CN(Cc1cccc(C(=O)Nc2cc3ccccc3cc2C(=O)N/N=C/c2cccc(F)c2)c1)CC(C)O (centres unmarked) [Compound 959, 3-{[Bis-(2-hydroxy-propyl)-amino]-methyl}-N-[3-(3-fluoro-benzylidene-hydrazinocarbonyl)-naphthalen-2-yl]-benzamide] | < 1
Cc1ccc(/C=N/NC(=O)c2cc3ccccc3cc2NC(=O)c2cccc(CN(CC(C)O)CC(C)O)c2)cc1 (centres unmarked) [Compound 960, 3-{[Bis-(2-hydroxy-propyl)-amino]-methyl}-N-[3-(4-methyl-benzylidene-hydrazinocarbonyl)-naphthalen-2-yl]-benzamide] | 1.12
Cc1ccc(/C=N/NC(=O)c2cc3ccccc3cc2NC(=O)c2cccc(CN(CC(C)O)CC(C)O)c2)cc1C (centres unmarked) [Compound 961, 3-{[Bis-(2-hydroxy-propyl)-amino]-methyl}-N-[3-(3,4-dimethyl-benzylidene-hydrazinocarbonyl)-naphthalen-2-yl]-benzamide] | < 1
CC(O)CN(Cc1cccc(C(=O)Nc2cc3ccccc3cc2C(=O)N/N=C/c2ccc(Cl)c(C(F)(F)F)c2)c1)CC(C)O (centres unmarked) [Compound 962, 3-{[Bis-(2-hydroxy-propyl)-amino]-methyl}-N-[3-(4-chloro-3-trifluoromethyl-benzylidene-hydrazinocarbonyl)-naphthalen-2-yl]-benzamide] | < 1
COc1ccc(/C=N/NC(=O)c2cc3ccccc3cc2NC(=O)c2cccc(CN(CC(C)O)CC(C)O)c2)cc1 (centres unmarked) [Compound 963, 3-{[Bis-(2-hydroxy-propyl)-amino]-methyl}-N-[3-(4-methoxy-benzylidene-hydrazinocarbonyl)-naphthalen-2-yl]-benzamide] | < 1
Cc1ccc(/C=N/NC(=O)c2cccnc2NC(=O)c2cccc(CN(CC(C)O)CC(C)O)c2)cc1 (centres unmarked) [Compound 965, 3-{[Bis-(2-hydroxy-propyl)-amino]-methyl}-N-[3-(4-methyl-benzylidene-hydrazinocarbonyl)-pyridin-2-yl]-benzamide] | 27.2
Cc1ccc(/C=N/NC(=O)c2cccnc2NC(=O)c2cccc(CN(CC(C)O)CC(C)O)c2)cc1C (centres unmarked) [Compound 966, 3-{[Bis-(2-hydroxy-propyl)-amino]-methyl}-N-[3-(3,4-dimethyl-benzylidene-hydrazinocarbonyl)-pyridin-2-yl]-benzamide] | 16
CC(O)CN(Cc1cccc(C(=O)Nc2ncccc2C(=O)N/N=C/c2ccc(Cl)c(C(F)(F)F)c2)c1)CC(C)O (centres unmarked) [Compound 967, 3-{[Bis-(2-hydroxy-propyl)-amino]-methyl}-N-[3-(4-chloro-3-trifluoromethyl-benzylidene-hydrazinocarbonyl)-pyridin-2-yl]-benzamide] | 6.57
O=C(Nc1cc2ccccc2cc1C(=O)N/N=C/c1cccc(F)c1)c1cccc(CN2CCN(CCO)CC2)c1 [Compound 969, N-[3-(3-Fluoro-benzylidene-hydrazinocarbonyl)-naphthalen-2-yl]-3-[4-(2-hydroxy-ethyl)-piperazin-1-ylmethyl]-benzamide] | < 3
Cc1ccc(/C=N/NC(=O)c2cc3ccccc3cc2NC(=O)c2cccc(CN3CCN(CCO)CC3)c2)cc1 [Compound 970, 3-[4-(2-Hydroxy-ethyl)-piperazin-1-ylmethyl]-N-[3-(4-methyl-benzylidene-hydrazinocarbonyl)-naphthalen-2-yl]-benzamide] | < 3
Cc1ccc(/C=N/NC(=O)c2cc3ccccc3cc2NC(=O)c2cccc(CN3CCN(CCO)CC3)c2)cc1C [Compound 971, N-[3-(3,4-Dimethyl-benzylidene-hydrazinocarbonyl)-naphthalen-2-yl]-3-[4-(2-hydroxy-ethyl)-piperazin-1-ylmethyl]-benzamide] | < 3
O=C(Nc1cc2ccccc2cc1C(=O)N/N=C/c1ccc(Cl)c(C(F)(F)F)c1)c1cccc(CN2CCN(CCO)CC2)c1 [Compound 972, N-[3-(4-Chloro-3-trifluoromethyl-benzylidene-hydrazinocarbonyl)-naphthalen-2-yl]-3-[4-(2-hydroxy-ethyl)-piperazin-1-ylmethyl]-benzamide] | < 3
COc1ccc(/C=N/NC(=O)c2cc3ccccc3cc2NC(=O)c2cccc(CN3CCN(CCO)CC3)c2)cc1 [Compound 973, 3-[4-(2-Hydroxy-ethyl)-piperazin-1-ylmethyl]-N-[3-(4-methoxy-benzylidene-hydrazinocarbonyl)-naphthalen-2-yl]-benzamide] | < 3
CC(O)CN(Cc1cccc(C(=O)Nc2cscc2C(=O)N/N=C/c2cccc(F)c2)c1)CC(C)O (centres unmarked) [Compound 974, 3-{[Bis-(2-hydroxy-propyl)-amino]-methyl}-N-[4-(3-fluoro-benzylidene-hydrazinocarbonyl)-thiophen-3-yl]-benzamide] | 12.6
Cc1cccc(/C=N/NC(=O)c2cscc2NC(=O)c2cccc(CN(CC(C)O)CC(C)O)c2)c1 (centres unmarked) [Compound 975, 3-{[Bis-(2-hydroxy-propyl)-amino]-methyl}-N-[4-(3-methyl-benzylidene-hydrazinocarbonyl)-thiophen-3-yl]-benzamide] | 17.4
Cc1ccc(/C=N/NC(=O)c2cscc2NC(=O)c2cccc(CN(CC(C)O)CC(C)O)c2)cc1 (centres unmarked) [Compound 976, 3-{[Bis-(2-hydroxy-propyl)-amino]-methyl}-N-[4-(4-methyl-benzylidene-hydrazinocarbonyl)-thiophen-3-yl]-benzamide] | 10.7
Cc1ccc(/C=N/NC(=O)c2cscc2NC(=O)c2cccc(CN(CC(C)O)CC(C)O)c2)cc1C (centres unmarked) [Compound 977, 3-{[Bis-(2-hydroxy-propyl)-amino]-methyl}-N-[4-(3,4-dimethyl-benzylidene-hydrazinocarbonyl)-thiophen-3-yl]-benzamide] | 10.1

Same assay, conditions: phosphate uptake, oocytes expressing rat NaPi-2b; 300 μM, determined from inhibition curve

Compound | inhibition at 300 µM [%]
Cc1ccc(/C=N/NC(=O)c2cc(OCC(O)CN3CCOCC3)ccc2NC(=O)c2cccc(CN(CC(C)O)CC(C)O)c2)cc1C (centres unmarked) [Compound 953, 3-{[Bis-(2-hydroxy-propyl)-amino]-methyl}-N-[2-(3,4-dimethyl-benzylidene-hydrazinocarbonyl)-4-(2-hydroxy-3-morpholin-4-yl-propoxy)-phenyl]-benzamide] | 67.8
COc1ccc(C(=O)Nc2sc(C)cc2C(=O)N/N=C/c2ccc(Cl)c(C(F)(F)F)c2)cc1OC [Compound 955, N-[3-(4-Chloro-3-trifluoromethyl-benzylidene-hydrazinocarbonyl)-5-methyl-thiophen-2-yl]-3,4-dimethoxy-benzamide] | 57.7
CCN(CC)Cc1cccc(C(=O)Nc2sc(CN3CCCCC3)c(C)c2C(=O)N/N=C/c2ccc(OC)cc2)c1 [Compound 957, 3-Diethylaminomethyl-N-[3-(4-methoxy-benzylidene-hydrazinocarbonyl)-4-methyl-5-piperidin-1-ylmethyl-thiophen-2-yl]-benzamide] | 54.9
CC(O)CN(Cc1cccc(C(=O)Nc2ncccc2C(=O)N/N=C/c2cccc(F)c2)c1)CC(C)O (centres unmarked) [Compound 964, 3-{[Bis-(2-hydroxy-propyl)-amino]-methyl}-N-[3-(3-fluoro-benzylidene-hydrazinocarbonyl)-pyridin-2-yl]-benzamide] | 67.5
COc1ccc(/C=N/NC(=O)c2cccnc2NC(=O)c2cccc(CN(CC(C)O)CC(C)O)c2)cc1 (centres unmarked) [Compound 968, 3-{[Bis-(2-hydroxy-propyl)-amino]-methyl}-N-[3-(4-methoxy-benzylidene-hydrazinocarbonyl)-pyridin-2-yl]-benzamide] | 52.7
